target: EP2 subtype of the human PGE2 receptor (hEP2 receptor) (Homo sapiens, UniProt P43116); test: cAMP antagonism test, human prostaglandin E2 (subtype EP2) receptor signal; assay type: cell-based
Method in brief: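 Cells (625000 cells/ml, mixed with cAMP-d2) were preincubated 20 min at RT with compound ([…]). They were then stimulated 60 min at RT with a 3× PGE2 solution (1.5 nM) in PBS-IBMX and lysed for 20 min. cAMP was read by HTRF as the 665/620 nm ratio ×10000, with antagonism seen as a rise in FRET signal.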

EP2 subtype of the human PGE2 receptor (hEP2 receptor), sequence (P43116 whole entry): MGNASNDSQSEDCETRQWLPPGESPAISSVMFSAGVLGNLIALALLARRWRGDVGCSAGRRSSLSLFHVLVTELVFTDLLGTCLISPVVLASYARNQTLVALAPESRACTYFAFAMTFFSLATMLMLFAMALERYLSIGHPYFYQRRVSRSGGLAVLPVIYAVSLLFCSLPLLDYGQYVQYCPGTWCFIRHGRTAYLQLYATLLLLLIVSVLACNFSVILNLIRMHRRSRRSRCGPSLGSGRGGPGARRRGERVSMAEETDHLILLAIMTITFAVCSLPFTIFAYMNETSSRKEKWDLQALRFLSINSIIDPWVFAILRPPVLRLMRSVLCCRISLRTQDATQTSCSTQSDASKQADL

IC50, > 50 nM:
COCCNC(=O)c1ccc2nn(CC3CCN(C(=O)c4ccc(F)cc4)CC3)cc2c1C [Example E21, 2-{[1-(4-fluorobenzoyl)piperidin-4-yl]methyl}-N-(2-methoxyethyl)-4-methyl-2H-indazole-5-carboxamide]
COCCNC(=O)c1ccc2nn(CC3CCN(C(=O)c4ccc(-c5ccc(C(F)(F)F)cc5)cc4)CC3)cc2c1C [Example E173, N-(2-methoxyethyl)-4-methyl-2-[(1-{[4′-(trifluoromethyl)biphenyl-4-yl]carbonyl}-piperidin-4-yl)methyl]-2H-indazole-5-carboxamide]
COCCNC(=O)c1ccc2nn(CC3CCN(C(=O)c4ccc(-c5cncc(F)c5)cc4)CC3)cc2c1C [Example E199, 2-({1-[4-(5-fluoropyridin-3-yl)benzoyl]piperidin-4-yl}methyl)-N-(2-methoxyethyl)-4-methyl-2H-indazole-5-carboxamide]
Cc1ccc(C(=O)N2CC(Cn3cc4c(C)c(C(=O)NCCOCC5CC5)ccc4n3)C2)cc1 [Example E104, N-[2-(cyclopropylmethoxy)ethyl]-4-methyl-2-{[1-(4-methylbenzoyl)azetidin-3-yl]-methyl}-2H-indazole-5-carboxamide]
COCCNC(=O)c1ccc2nn(CC3CCN(C(=O)c4ccc(C(F)(F)F)cc4)CC3)cc2c1C [Example E22, N-(2-methoxyethyl)-4-methyl-2-({1-[4-(trifluoromethyl)benzoyl]piperidin-4-yl}-methyl)-2H-indazole-5-carboxamide]
COCCNC(=O)c1ccc2nn(CC3CCN(C(=O)c4ccc(-c5ccc(F)cc5C)cc4)CC3)cc2c1C [Example E189, 2-({1-[(4′-fluoro-2′-methylbiphenyl-4-yl)carbonyl]piperidin-4-yl}methyl)-N-(2-methoxyethyl)-4-methyl-2H-indazole-5-carboxamide]
COCCNC(=O)c1ccc2nn(CC3CCN(C(=O)c4ccc(-c5ccccc5F)cc4)CC3)cc2c1C [Example E45, 2-({1-[(2′-fluorobiphenyl-4-yl)carbonyl]piperidin-4-yl}methyl)-N-(2-methoxyethyl)-4-methyl-2H-indazole-5-carboxamide]
COCCNC(=O)c1ccc2nn(CC3CN(C(=O)c4ccc(Oc5ccc(C(F)(F)F)cc5)cc4)C3)cc2c1C [Example E95, N-(2-methoxyethyl)-4-methyl-2-[(1-{4-[4-(trifluoromethyl)phenoxy]benzoyl}azetidin-3-yl)methyl]-2H-indazole-5-carboxamide]
COCCNC(=O)c1ccc2nn(CC3CCN(C(=O)c4ccc(S(F)(F)(F)(F)F)cc4)CC3)cc2c1C [Example E11, N-(2-methoxyethyl)-4-methyl-2-({1-[4-(pentafluoro-λ^6-sulphanyl)benzoyl]piperidin-4-yl}methyl)-2H-indazole-5-carboxamide]
COCCNC(=O)c1ccc2nn(CC3CCN(C(=O)c4ccc(Br)c(C)c4)CC3)cc2c1C [Example E154, 2-{[1-(4-bromo-3-methylbenzoyl)piperidin-4-yl]methyl}-N-(2-methoxyethyl)-4-methyl-2H-indazole-5-carboxamide]
COCCNC(=O)c1ccc2nn(CC3CCN(C(=O)c4ccc(-c5ccc(OC)cc5)cc4)CC3)cc2c1C [Example E166, 2-({1-[(4′-methoxybiphenyl-4-yl)carbonyl]piperidin-4-yl}methyl)-N-(2-methoxyethyl)-4-methyl-2H-indazole-5-carboxamide]
Cc1c(C(=O)NCC(F)(F)F)ccc2nn(CC3CN(C(=O)c4ccc(Oc5ccc(Cl)cc5)cc4)C3)cc12 [Example E115, 2-({1-[4-(4-chlorophenoxy)benzoyl]azetidin-3-yl}methyl)-4-methyl-N-(2,2,2-trifluoro-ethyl)-2H-indazole-5-carboxamide]
COCCNC(=O)c1ccc2nn(CC3CCN(C(=O)c4ccc(Oc5cccnc5)cc4)CC3)cc2c1C [Example E160, N-(2-methoxyethyl)-4-methyl-2-({1-[4-(pyridin-3-yloxy)benzoyl]piperidin-4-yl}methyl)-2H-indazole-5-carboxamide]
COCCNC(=O)c1ccc2nn(CC3CCN(C(=O)c4ccc(-c5ccc(C)c(C)c5)cc4F)CC3)cc2c1C [Example E176, 2-({1-[(3-fluoro-3′,4′-dimethylbiphenyl-4-yl)carbonyl]piperidin-4-yl}methyl)-N-(2-methoxyethyl)-4-methyl-2H-indazole-5-carboxamide]
COCCNC(=O)c1ccc2nn(CC3CCN(C(=O)c4ccc(-c5ccc(Cl)cc5C)cc4)CC3)cc2c1C [Example E184, 2-({1-[(4′-chloro-2′-methylbiphenyl-4-yl)carbonyl]piperidin-4-yl}methyl)-N-(2-methoxyethyl)-4-methyl-2H-indazole-5-carboxamide]
Cc1ccc(C(=O)N2CCC(Cn3cc4c(C)c(C(=O)NCCOCC5CC5)ccc4n3)CC2)cc1 [Example E60, N-[2-(cyclopropylmethoxy)ethyl]-4-methyl-2-{[1-(4-methylbenzoyl)piperidin-4-yl]-methyl}-2H-indazole-5-carboxamide]
COCCNC(=O)c1ccc2nn(CC3CCN(C(=O)c4ccc(-n5cccn5)cc4)CC3)cc2c1C [Example E36, N-(2-methoxyethyl)-4-methyl-2-({1-[4-(1H-pyrazol-1-yl)benzoyl]piperidin-4-yl}-methyl)-2H-indazole-5-carboxamide]
Cc1c(C(=O)NCCOC(C)C)ccc2nn(CC3CCN(C(=O)c4ccc(-c5ccc(F)cc5)cc4)CC3)cc12 [Example E75, 2-({1-[(4′-fluorobiphenyl-4-yl)carbonyl]piperidin-4-yl}methyl)-N-(2-isopropoxyethyl)-4-methyl-2H-indazole-5-carboxamide]
Cc1c(C(=O)NCCOCC(F)(F)F)ccc2nn(CC3CN(C(=O)c4ccc(Oc5ccc(C(F)(F)F)cc5)cc4)C3)cc12 [Example E113, 4-methyl-N-[2-(2,2,2-trifluoroethoxy)ethyl]-2-[(1-{4-[4-(trifluoromethyl)phenoxy]-benzoyl}azetidin-3-yl)methyl]-2H-indazole-5-carboxamide]
Cc1c(C(=O)NCCOCC(F)(F)F)ccc2nn(CC3CCN(C(=O)c4ccc(Oc5ccc(F)cc5)cc4)CC3)cc12 [Example E67]
Cc1c(C(=O)NCCOC(F)(F)F)ccc2nn(CC3CCN(C(=O)c4ccc(Cl)cc4)CC3)cc12 [Example E77, 2-{[1-(4-chlorobenzoyl)piperidin-4-yl]methyl}-4-methyl-N-[2-(trifluoromethoxy)ethyl]-2H-indazole-5-carboxamide]
Cc1c(C(=O)NCC(F)(F)F)ccc2nn(CC3CCN(C(=O)c4ccc(-c5ccc(C(F)(F)F)cc5)cc4)CC3)cc12 [Example E138, 4-methyl-N-(2,2,2-trifluoroethyl)-2-[(1-{[4′-(trifluoromethyl)biphenyl-4-yl]carbonyl}-piperidin-4-yl)methyl]-2H-indazole-5-carboxamide]
Cc1c(C(=O)NCCOC(C)(C)C)ccc2nn(CC3CCN(C(=O)c4ccc(-c5ccc(F)cc5)cc4)CC3)cc12 [Example E83, N-(2-tert-butoxyethyl)-2-({1-[(4′-fluorobiphenyl-4-yl)carbonyl]piperidin-4-yl}methyl)-4-methyl-2H-indazole-5-carboxamide]
COCCNC(=O)c1ccc2nn(CC3CCN(C(=O)c4ccc(C(C)(C)C)cc4)CC3)cc2c1C [Example E155, 2-{[1-(4-tert-butylbenzoyl)piperidin-4-yl]methyl}-N-(2-methoxyethyl)-4-methyl-2H-indazole-5-carboxamide]
COCCNC(=O)c1ccc2nn(CC3CCN(C(=O)c4ccc(Br)cc4F)CC3)cc2c1C [Example E8, 2-{[1-(4-bromo-2-fluorobenzoyl)piperidin-4-yl]methyl}-N-(2-methoxyethyl)-4-methyl-2H-indazole-5-carboxamide]
Cc1c(C(=O)NCCOC(F)(F)F)ccc2nn(CC3CCN(C(=O)c4ccc(-c5ccc(F)cc5)cc4)CC3)cc12 [Example E79, 2-({1-[(4′-fluorobiphenyl-4-yl)carbonyl]piperidin-4-yl}methyl)-4-methyl-N-[2-(trifluoromethoxy)ethyl]-2H-indazole-5-carboxamide]
COCCNC(=O)c1ccc2nn(CC3CCN(C(=O)c4ccc(-c5cncc(Cl)c5)cc4)CC3)cc2c1C [Example E198, 2-({1-[4-(5-chloropyridin-3-yl)benzoyl]piperidin-4-yl}methyl)-N-(2-methoxyethyl)-4-methyl-2H-indazole-5-carboxamide]
COCCNC(=O)c1ccc2nn(CC3CCN(C(=O)c4ccc(-c5cc(F)cc(F)c5)c(C)c4)CC3)cc2c1C [Example E204, 2-({1-[(3′,5′-difluoro-2-methylbiphenyl-4-yl)carbonyl]piperidin-4-yl}methyl)-N-(2-methoxyethyl)-4-methyl-2H-indazole-5-carboxamide]
Cc1c(C(=O)NCCOCC(F)(F)F)ccc2nn(CC3CCN(C(=O)c4ccc(-c5ccc(F)cc5)cc4)CC3)cc12 [Example E69, 2-({1-[(4′-fluorobiphenyl-4-yl)carbonyl]piperidin-4-yl}methyl)-4-methyl-N-[2-(2,2,2-trifluoroethoxy)ethyl]-2H-indazole-5-carboxamide]
COCCNC(=O)c1ccc2nn(CC3CCN(C(=O)c4ccc(OC)cc4F)CC3)cc2c1C [Example E7, 2-{[1-(2-fluoro-4-methoxybenzoyl)piperidin-4-yl]methyl}-N-(2-methoxyethyl)-4-methyl-2H-indazole-5-carboxamide]

— patent US9655887B2, “Pharmaceutical composition and the use thereof, and application regime of said pharmaceutical composition for on-demand contraception” (BAYER PHARMA AKTIENGESELLSCHAFT, priority 2013, dated 2017)
